Test results: patent US3963707A, “Novel N-nitroso compounds, compositions containing such compounds, processes for their preparation and methods of treatment therewith, and novel intermediates” (Aktiebolaget Leo, priority 1973, dated 1976)

Experiments:
in vivo = assay: in vivo; parameters: species or system SPF Wistar rats; conditions: rat, in vivo, ip; one injection i.p., rats; dose causing 50 percent lethality
Method in brief: (§1)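 SPF Wistar rats were implanted i.p. with 5 × 10^6 AH 130 cells and given one i.p. dose the next day. On day 8 they were killed and tumour weights were compared with controls. ED50 is the dose halving tumour size, LD50 the 50% lethal dose, and T.I. is LD50/ED50.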

Hepatoma AH 130 = assay: in vivo; parameters: species or system SPF Wistar rats; conditions: for T.I. (LD50/ED50): Hepatoma AH 130, rats, i.p.; for ED50: Rattus norvegicus, ip, 192 h, one injection i.p. day after implantation, dose causing 50 percent reduction of tumour size
Method in brief: as §1

[1] = system: Walker carcinosarcoma 256; assay: Walker carcinosarcoma 256 test; format: in vivo, Sprague Dawley rats; conditions: for Lethality: died/used animals
From the text: (§2) The experimental design and the interpretation of the results have been in accordance with the standards set by the CCNSC (Cancer Chemotherapy Reports, January 1959 and December 1962), and by the DR&D (Cancer Chemotherapy Reports, September 1972, Vol. 3, No. 2).
(§3) The way of administration is by the intraperitoneal route (i.p.) in each case.
Walker carcinosarcoma 256
Experimental animals: Sprague Dawley rats.
Tumour implant: Tumour pieces with 2-4 mm diameter, subcutaneously.
Therapy: Daily injections i.p. for 5 days starting on the day following implantation.
Termination: The animals are killed on the 9th day.
Evaluation: Weights of tumours of test animals are compared with those of control animals. The differences, in per cent of weights of tumours of control animals, give per cent tumour inhibition.
The lethality is given as the number of animals which died in the experiment/the number of animals used in the experiments.

[2] = system: Ehrlich ascites tumour, ELD hyperdiploid (46 chromosomes); assay: Ehrlich ascites tumour test (LD50, ED50, therapeutic index); format: in vivo, SPF NMRI mice; conditions: additional compounds, result in words
From the text: The high activity against tumours is further illustrated in these experiments by comparisons with known antitumour agents used in the therapy. The therapeutic indexes (T.I.), i.e. the ratios LD50/ED50, are in all comparisons much more favourable with the compounds of the present invention.
LD50 is the dose that caused a 50 percent lethality of the animals, ED50 is the dose that caused a 50 percent reduction of tumour size.
as §2, §3
Ehrlich ascites tumour, ELD hyperdiploid (46 chromosomes)
Experimental animals: SPF NMRI mice.
Tumour implant: 2 × 10^6 tumour cells i.p.
(§4) Therapy: One injection i.p. on the day following implantation.
Termination: The animals are killed on the 8th day.
Evaluation: Weights of tumours of test animals compared with those of control animals.

[3] = system: Lymphatic leukemia L 1210; assay: Lymphatic leukemia L 1210 test; format: in vivo, CDF1 (C3H×DBA/2)F1 mice; conditions: dose of 1000 mg/kg, comparative compounds
From the text: as §2, §3
Lymphatic leukemia L 1210
Experimental animals: CDF1 (C3H×DBA/2)F1 mice.
Tumour implant: 10^5 tumour cells i.p.
as §4
Evaluation: a) The survival time of the test animals (t) expressed as the percentage of that of control animals (c).
b. Weight change in the test animals (T) compared with that of the control animals (c) up to the 5th day.
c. The mortality rate must not exceed 35% in the test animals on the 5th day of therapy.

Compound	LD50 (in vivo)	T.I. (LD50/ED50) (Hepatoma AH 130)	ED50 (Hepatoma AH 130)	Tumour inhibition % ([1]; 5×31 mg/kg i.p.)	Lethality ([1]; 5×31 mg/kg i.p.)	anti-tumor activity [2]	Tumour inhibition % ([1]; 5×125 mg/kg i.p.)	Lethality ([1]; 5×125 mg/kg i.p.)	Tumour inhibition % ([1]; 5×500 mg/kg i.p.)	Lethality ([1]; 5×500 mg/kg i.p.)	Tumour inhibition % ([1]; 5×250 mg/kg i.p.)	Lethality ([1]; 5×250 mg/kg i.p.)	anti-tumor activity (Hepatoma AH 130; doses 1 × 250, 1 × 500 and 1 × 1000 mg/kg respectively)	effect on L 1210 [3]
C[C@]12CC[C@@H]3c4ccc(OC(=O)N(CCCl)N=O)cc4CC[C@H]3[C@@H]1CC[C@@H]2O [17β-estradiol-3-N-(2-chloroethyl)-N-nitroso carbamate]	> 1000 mg/kg	> 4.000	< 0.25 mg/kg	86%	0/8	exhibit anti-tumor activity								
C[C@]12CC[C@H]3[C@@H](CC=C4C[C@@H](OC(=O)N(CCCl)N=O)CC[C@@]43C)[C@@H]1CC[C@@H]2OC(=O)N(CCCl)N=O [androstenediol-3β,17β-bis-/N-(2-chloroethyl)-N-nitroso carbamate/]	> 250 mg/kg		0.25 mg/kg			exhibit anti-tumor activity								
CC(=O)O[C@H]1CC[C@@]2(C)C(=CC[C@H]3[C@@H]4CC[C@H](OC(=O)N(CCCl)N=O)[C@@]4(C)CC[C@@H]32)C1 [androstenediol-3β-acetate-17β-N-(2-chloroethyl)-N-nitroso carbamate]	> 250 mg/kg		0.25 mg/kg			exhibit anti-tumor activity	41%	0/8						
CC(=O)O[C@H]1CC[C@H]2[C@@H]3CC=C4C[C@@H](OC(=O)N(CCCl)N=O)CC[C@]4(C)[C@H]3CC[C@]12C [androstenediol-17β-acetate-3β-N-(2-chloroethyl)-N-nitroso carbamate]	> 250 mg/kg		0.25 mg/kg			exhibit anti-tumor activity	59%	0/8						
CC(C)CCC[C@@H](C)[C@H]1CC[C@H]2[C@@H]3CC=C4C[C@@H](OC(=O)N(CCCl)N=O)CC[C@]4(C)[C@H]3CC[C@]12C [cholesterol-3β-N-(2-chloroethyl)-N-nitroso carbamate]	> 1000 mg/kg	> 5	200 mg/kg			exhibit anti-tumor activity			39%	0/8				
C[C@]12CC[C@H](OC(=O)N(CCBr)N=O)CC1=CC[C@@H]1[C@@H]2CC[C@]2(C)C(=O)CC[C@@H]12 [dehydroepiandrosterone-3β-N-(2-bromoethyl)-N-nitroso carbamate]	> 1000 mg/kg	> 14	70 mg/kg			exhibit anti-tumor activity					61%	0/8		
CC(Cl)CN(N=O)C(=O)O[C@H]1CC[C@@]2(C)C(=CC[C@@H]3[C@@H]2CC[C@]2(C)C(=O)CC[C@@H]32)C1 (stereo partly drawn) [dehydroepiandrosterone-3β-N-(2-chloropropyl)-N-nitroso carbamate]	> 1000 mg/kg	> 10	100 mg/kg			exhibit anti-tumor activity								
C[C@]12CC[C@H](OC(=O)N(CCCCl)N=O)CC1=CC[C@@H]1[C@@H]2CC[C@]2(C)C(=O)CC[C@@H]12 [dehydroepiandrosterone-3β-N-(3-chloropropyl)-N-nitroso carbamate]	> 1000 mg/kg	> 2.7	375 mg/kg			exhibit anti-tumor activity			24%	0/8				
CCN(N=O)C(=O)O[C@H]1CC[C@@]2(C)C(=CC[C@@H]3[C@@H]2CC[C@]2(C)C(=O)CC[C@@H]32)C1 [dehydroepiandrosterone-3β-N-ethyl-N-nitroso carbamate, reference compound]									0%	1/8			inactive	without effect
C[C@]12CC[C@@H]3c4ccc(OC(=O)c5ccccc5)cc4CC[C@H]3[C@@H]1CC[C@@H]2OC(=O)N(CCCl)N=O [estradiol-3-benzoate-17β-N-(2-chloroethyl)-N-nitroso carbamate]	> 1000 mg/kg	> 16	< 63 mg/kg			exhibit anti-tumor activity	73%	0/8						
